In patent EP0533344B1, “Methanoanthracenes as dopamine antagonists” (ZENECA LIMITED, priority 1991, dated 1993):
Read-outs that look alike come from different tables or passages of the source.

What was measured:
[1] = target: T1, dopamine (DA) D-2 receptor subtype (Rattus norvegicus, UniProt P61169); assay: Test A: dopamine D-2 receptor binding assay, displacement of [3H]-spiperone
T1 construct: Specifically, rat striatal membranes were used; from tissue; host or cells: rat striatum (membranes)
Description: (§1) The compounds of Formula I are antagonists of dopamine D-2 receptors, and as such are predicted to be useful as antipsychotic drugs. D-2 antagonism can be shown by standard tests such as antagonism of [^3H]-spiperone binding (Test A), and/or antagonism of apomorphine-induced climbing and apomorphine- induced disruption of swimming (Test B).
The receptor binding assay used to measure affinities of various compounds for the dopamine (DA) D-2 receptor subtype was that described by Saller and Salama in J Pharmacol Exp Ther 236, page 714, 1986.
Specifically, rat striatal membranes were used. Tissue membranes were prepared and washed once in 50 volumes of the appropriate Tris HCl buffer. For the D-2 receptor binding assay, striatal membranes were suspended to a final concentration of 8 mg/ml in 50 mM Tris HCl with 40 nM ketanserin, pH 7.7. Nonspecific binding to D-2 receptors was measured in the presence of 1.0 µM (+)-butaclamol. IC50s (drug concentration which produced a 50% displacement) for the displacement of 0.5 nM [^3H] spiperone were determined using at least five concentrations of each drug in triplicate. One-half milliliter of membrane suspension was incubated with the compound of interest or vehicle or nonspecific drug, ligand and appropriate Tris HCl buffer. […] The amount of drug bound to the membranes was assessed using liquid scintillation counting techniques. […]

[2] = test system: Female Swiss-Webster mice; assay: Test B: antagonism of apomorphine-induced climbing and apomorphine-induced disruption of swimming; type: in vivo; settings: Mus musculus, po, read-out: minimum effective dose
Protocol: as §1
Female Swiss-Webster mice weighing approximately 20 g were deprived of food for approximately 24 h and then dosed orally with various doses of either the vehicle or test agent over a range of doses (N = 20 mice per treatment group). Thirty minutes later they were dosed with apomorphine HCl at 1.25 mg/kg, sc, and placed into climbing cages. The climbing cages were 9 cm wide, 15 cm deep and 30 cm high. One wall had 27 horizontal rungs spaced 1 cm apart. Thirteen minutes after apomorphine each mouse was observed continuously for 1 min and the highest and lowest rung reached by its front paws was recorded. […] (The highest and lowest scores were 27 and 0, respectively.) Immediately after the 1-min climbing observation period each mouse was placed into a circular swimming tank for 2 min and the number of swims was counted. […] A "swim" was scored each time a mouse swam from one mark to the other. The mice were observed through overhead mirrors and the number of 180 degree swims was recorded for each mouse. […]

T1 sequence (P61169 whole entry): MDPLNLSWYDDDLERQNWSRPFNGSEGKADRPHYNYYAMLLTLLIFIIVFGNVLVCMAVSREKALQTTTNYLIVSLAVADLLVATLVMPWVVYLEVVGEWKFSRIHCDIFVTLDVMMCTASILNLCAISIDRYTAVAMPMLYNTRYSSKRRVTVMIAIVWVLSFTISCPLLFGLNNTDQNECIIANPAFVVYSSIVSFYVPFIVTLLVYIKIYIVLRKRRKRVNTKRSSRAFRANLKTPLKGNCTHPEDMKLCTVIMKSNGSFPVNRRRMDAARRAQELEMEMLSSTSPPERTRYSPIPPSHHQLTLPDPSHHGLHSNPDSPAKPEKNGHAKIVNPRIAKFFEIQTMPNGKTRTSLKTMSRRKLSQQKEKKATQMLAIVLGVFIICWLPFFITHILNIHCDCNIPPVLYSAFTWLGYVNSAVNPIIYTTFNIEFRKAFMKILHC

| IC50 ([1]; displacement of 0.5 nM [3H] spiperone, rat striatal membranes, 37°C for 15 min, typical result, read-out: IC50) | SMILES | IC50 [1] | minimal effective dose [2] | minimal effective dose ([2]; dosed orally 30 min before apomorphine HCl 1.25 mg/kg sc, decreased climbing score with increased swimming score, typical result) |
| --- | --- | --- | --- | --- |
| – | OC1(c2cccnc2)CCN(CC23CC(c4ccccc42)c2ccccc23)CC1 [Example 5, 1-(9,10-Dihydro-9,10-methanoanthracen-9-ylmethyl)-4-(3-pyridyl)piperidin-4-ol] | 12 nM | 20 mg/kg | – |
| 3 nM | CC(C)(C)C1(O)CCN(CC23CC(c4ccccc42)c2ccc(Cl)cc23)CC1 (stereo not shown) [Example 49, 1-(2-Chloro-9,10-dihydro-9,10-methanoanthracen-9-ylmethyl)-4-(1,1-dimethylethyl)piperidin-4-ol] | – | – | 1.3 mg/kg |
